Measurements as given in patent US9527859B2, “Amidopyridine derivative and use thereof” (Mitsubishi Tanabe Pharma Corporation, priority 2012, dated 2016).

How the values were obtained:
HepG2 cells = assay: Evaluation of hepatocyte cytotoxicity using HepG2 cells (CellTiter-Glo); type: cell-based, human; conditions: for Survival rate (%): cell survival rate
Method: Evaluation of Hepatocyte Cytotoxicity Using HepG2 Cells
A culture solution was prepared by adding 10% Fetal Bovine Serum (FBS: treated to be inactivated under the condition of 56° C., 30 minutes, Invitrogen, 10082-147), 0.1 mM Non-Essential Amino Acids (NEAA: Invitrogen, 11140-050), 1 mM sodium pyruvate (PyNa: Invitrogen, 11360-070) to Eagle's MEM medium (Invitrogen, 11875-093) and was used after warming to 37° C. before using.
HepG2 cell line (DS Pharma Biomedical) derived from human hepatoma in logarithmic growth phase were used. The number of cells subjected to subculturing was 1 to 5×10^6 cell/15 mL in a 75 cm^2 cultivation flask, and cells were subcultured about every 1 week depending on the condition of cells. In subculturing, cells were rinsed with D-PBS (−) (invitrogen, 14190-144) (10 mL), then thereto was added 0.25% Trypsin-1 mM EDTA (Invitrogen, 25200-056) (1 mL), and the mixture was treated for 10 minutes (37° C., 5% CO2), then thereto was added culture solution (9 mL), and the mixture was collected and centrifuged (1000 rpm×5 minutes, 4° C.). The number of cells were counted by dyeing with 0.4% trypan blue solution (Invitrogen, 15250-061), and then cells were diluted with culture solution to be a specific number of cells and incubated under the condition of 37° C., 5% CO2.
As to a cell seeding, HepG2 cells which were incubated in a 75 cm^2 flask were rinsed with D-PBS (−) (10 mL), and then thereto was added 0.25% Trypsin-1 mM EDTA (1 mL), and the mixture was treated for 10 minutes (37° C., 5% CO2). Thereto was added additional culture solution (9 mL), and the mixture was collected in a 50 mL centrifuge tube to be centrifuged (1000 rpm×5 minutes, 4° C.). A supernatant was removed, and the residual cells were suspended by additional culture solution and sufficiently single-celled by pipetting. After dyeing with 0.4% trypan blue, the number of cells were counted by using a cell counting chamber, and a suspended cell was prepared in a specified cell density (In case of 24-hour exposure: 1×10^5, in case of 48-hour exposure: 5×10^4 cells/mL). The 100 μL of cell suspension was added per 1 well (n=3, 24 hours: 1×10^4, 48 hours: 5×10^3 cells/100 μL/well) of 96 well Clear bottom black microplate (Corning, 3603), and then the mixture was pre-incubated for about 24 hours under the condition of 37° C., 5% CO2.
Stock solutions of test compounds were prepared in a 200-fold concentration of the desired maximum concentration to be homogenized with optional ultrasonication. These stock solutions were preserved at −20° C. Before using, a stock solution was thawed, and diluted with DMSO to be concentrations of 20 mM to 20 μM (common ratio of 3, 7 concentrations in total), and then it was diluted with culture solution in 100-fold to prepare a culture solution containing test compounds in a 2-fold concentration. Thus, the upper limit of the final concentration of DMSO in culture solution was in principle 0.5% (v/v).
A vehicle control group and a positive control group were set with each measurement plate. Chlorpromazine (Wako Pure Chemical Industries, Ltd., 033-10581) was used as a positive control agent (final concentration 24 hours: 20 μM, 48 hours: 15 μM). 20 mM stock solution was thawed, and then diluted with culture solution, and chlorpromazine-containing culture solution was prepared in 2-fold concentration.
As to the treatment of test compounds, a culture solution (100 μL) containing a test compound or a positive control agent and a culture solution (100 μL) containing vehicle were added to each specified well. A culture solution (200 μL) was added to blank (without cells) well. Thus, total amounts of culture solution of each well were 200 μL, and the final concentration of test compounds was 100 μM to 0.1 μM (common ratio of 3, 7 concentrations in total).
Incubation was carried out under the condition of 37° C., 5% CO2 for 24 or 48 hours. […]

[1] = system: production of IL-17 in mouse splenocytes stimulated by recombinant mouse interleukin-23; assay: Production of IL-17 induced when mouse splenocytes were stimulated by rm-IL-23 (ELISA); type: cell-based; conditions: Splenocyte, inhibition of IL-17 production, rm-IL-23 1 nmol/L, 72 hours
Procedure, shortened: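 Splenocytes from 6–7-week-old male DBA/1J mice (2×10^5 cells/well) stimulated with 1 nmol/L rm-IL-23 plus compound (1 to 1,000 nmol/L final) for 72 h at 37 °C. Supernatant IL-17 measured by ELISA, viability by WST-8 at 450 nm; IC50 obtained by linear regression of % inhibition versus vehicle.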

Row | Structure (SMILES) | Cell survival rate (HepG2 cells) [%] | Survival rate (%) (HepG2 cells) | IC50 [1] [µM]
1 | Cc1c(C(=O)Nc2cnc(N3CCC(O)CC3)c(C3CC3)c2)cnn1-c1ccc(Cl)cc1 [Example 39, 1-(4-chlorophenyl)-N-[5-cyclopropyl-6-(4-hydroxypiperidin-1-yl)pyridin-3-yl]-5-methyl-1H-pyrazole-4-carboxamide] | 65.8 | 107.1 | 0.136
2 | Cc1cc(NC(=O)c2cnn(-c3ccc(Cl)cc3)c2C)cnc1N1CCC(O)CC1 [Example 43, 1-(4-chlorophenyl)-N-[6-(4-hydroxypiperidin-1-yl)-5-methylpyridin-3-yl]-5-methyl-1H-pyrazole-4-carboxamide] | – | 117.8 | 0.102
3 | Cc1c(C(=O)Nc2cnc(N3CCC(O)CC3)c(C#N)c2)cnn1-c1ccc(Cl)cc1 [Example 44, 1-(4-chlorophenyl)-N-[5-cyano-6-(4-hydroxypiperidin-1-yl)pyridin-3-yl]-5-methyl-1H-pyrazole-4-carboxamide] | – | 95.8 | 0.0749
4 | Cc1c(C(=O)Nc2cnc(N3CCC(O)CC3)c(C#N)c2)cnn1-c1ccc(C(F)(F)F)cc1 [Example 45, N-[5-cyano-6-(4-hydroxypiperidin-1-yl)pyridin-3-yl]-5-methyl-1-[4-(trifluoromethyl)phenyl]-1H-pyrazole-4-carboxamide] | – | 92.5 | 0.0725
5 | Cc1cc(NC(=O)c2cnn(-c3ccc(C(F)(F)F)cc3)c2C)cnc1N1CCC(C(C)(C)F)CC1 [Example 47, N-{6-[4-(1-fluoro-1-methylethyl)piperidin-1-yl]-5-methylpyridin-3-yl}-5-methyl-1-[4-(trifluoromethyl)phenyl]-1H-pyrazole-4-carboxamide] | – | 99.8 | 0.0579
6 | Cc1cc(NC(=O)c2cnn(-c3ccc(C(F)(F)F)cn3)c2C)cnc1N1CCC(C(C)(C)F)CC1 [Example 49, N-{6-[4-(1-fluoro-1-methylethyl)piperidin-1-yl]-5-methylpyridin-3-yl}-5-methyl-1-[5-(trifluoromethyl)pyridin-2-yl]-1H-pyrazole-4-carboxamide] | – | 102.3 | 0.0547
